{"source": "patent US11123337B2", "about": "“4-methylsulfonyl-substituted piperidine urea compounds” (MYOKARDIA, INC., priority 2015, dated 2021)", "data": [{"target": "bovine cardiac myosin (Bos taurus, UniProt Q9BE39)", "sequence (Q9BE39 whole entry)": "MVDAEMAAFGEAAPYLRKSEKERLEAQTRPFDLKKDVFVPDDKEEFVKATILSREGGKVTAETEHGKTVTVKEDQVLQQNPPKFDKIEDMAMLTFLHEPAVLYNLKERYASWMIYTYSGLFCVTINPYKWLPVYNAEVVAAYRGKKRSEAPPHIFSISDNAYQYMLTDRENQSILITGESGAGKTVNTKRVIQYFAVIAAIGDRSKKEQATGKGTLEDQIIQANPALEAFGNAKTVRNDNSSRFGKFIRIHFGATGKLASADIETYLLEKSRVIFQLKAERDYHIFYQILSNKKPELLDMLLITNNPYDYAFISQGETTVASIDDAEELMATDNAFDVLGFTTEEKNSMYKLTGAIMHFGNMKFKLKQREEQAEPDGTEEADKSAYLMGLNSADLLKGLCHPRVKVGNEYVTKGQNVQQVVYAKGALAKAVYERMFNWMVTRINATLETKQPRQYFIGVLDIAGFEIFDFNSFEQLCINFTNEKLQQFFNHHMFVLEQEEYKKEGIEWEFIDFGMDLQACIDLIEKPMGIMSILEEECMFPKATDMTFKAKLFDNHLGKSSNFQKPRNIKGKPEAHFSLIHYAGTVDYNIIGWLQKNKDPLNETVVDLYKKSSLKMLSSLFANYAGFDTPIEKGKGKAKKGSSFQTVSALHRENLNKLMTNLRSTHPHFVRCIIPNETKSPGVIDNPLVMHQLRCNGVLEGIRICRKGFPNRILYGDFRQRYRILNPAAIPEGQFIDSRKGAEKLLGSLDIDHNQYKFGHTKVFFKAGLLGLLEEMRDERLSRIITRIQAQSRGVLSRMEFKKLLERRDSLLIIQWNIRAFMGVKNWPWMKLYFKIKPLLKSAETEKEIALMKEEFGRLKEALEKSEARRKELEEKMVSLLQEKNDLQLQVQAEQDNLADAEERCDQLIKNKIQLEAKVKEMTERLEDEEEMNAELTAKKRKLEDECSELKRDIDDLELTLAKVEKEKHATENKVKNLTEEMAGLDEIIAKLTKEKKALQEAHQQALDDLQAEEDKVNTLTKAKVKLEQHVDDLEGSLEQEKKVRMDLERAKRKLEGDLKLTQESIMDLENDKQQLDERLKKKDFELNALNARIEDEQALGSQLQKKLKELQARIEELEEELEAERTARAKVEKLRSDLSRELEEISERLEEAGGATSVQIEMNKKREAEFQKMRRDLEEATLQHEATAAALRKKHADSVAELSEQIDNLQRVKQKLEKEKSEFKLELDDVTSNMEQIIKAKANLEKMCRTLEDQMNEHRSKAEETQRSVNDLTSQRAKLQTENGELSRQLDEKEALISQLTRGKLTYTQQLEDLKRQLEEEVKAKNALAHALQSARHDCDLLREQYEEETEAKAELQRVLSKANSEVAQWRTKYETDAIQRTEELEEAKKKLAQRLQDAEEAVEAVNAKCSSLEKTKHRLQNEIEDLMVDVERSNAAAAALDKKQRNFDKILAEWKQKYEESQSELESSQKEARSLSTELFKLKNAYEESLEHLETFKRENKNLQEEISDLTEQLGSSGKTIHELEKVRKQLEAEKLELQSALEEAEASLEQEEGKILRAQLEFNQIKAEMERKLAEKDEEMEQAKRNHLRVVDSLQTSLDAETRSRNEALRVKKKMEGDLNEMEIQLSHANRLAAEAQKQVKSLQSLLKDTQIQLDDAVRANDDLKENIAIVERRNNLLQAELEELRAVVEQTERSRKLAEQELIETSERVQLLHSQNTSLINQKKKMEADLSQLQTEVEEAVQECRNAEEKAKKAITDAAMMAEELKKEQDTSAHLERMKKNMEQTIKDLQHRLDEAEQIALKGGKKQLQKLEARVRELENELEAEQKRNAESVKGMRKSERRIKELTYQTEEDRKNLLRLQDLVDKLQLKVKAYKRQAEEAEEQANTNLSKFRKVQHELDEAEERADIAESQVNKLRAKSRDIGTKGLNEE", "sequence (P85100 whole entry partner)": "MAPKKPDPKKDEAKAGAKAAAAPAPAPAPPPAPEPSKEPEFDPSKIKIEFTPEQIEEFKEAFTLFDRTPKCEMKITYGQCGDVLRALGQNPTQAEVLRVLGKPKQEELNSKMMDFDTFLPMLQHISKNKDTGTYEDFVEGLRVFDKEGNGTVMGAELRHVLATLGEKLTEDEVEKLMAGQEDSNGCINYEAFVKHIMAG", "sequence (Q3SZE5 whole entry partner)": "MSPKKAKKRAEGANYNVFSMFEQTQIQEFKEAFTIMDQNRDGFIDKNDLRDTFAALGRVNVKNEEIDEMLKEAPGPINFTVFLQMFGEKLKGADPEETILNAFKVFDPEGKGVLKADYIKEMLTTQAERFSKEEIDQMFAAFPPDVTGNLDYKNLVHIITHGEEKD", "assay": "Myosin activation assay (PK/LDH-coupled ATPase, bovine cardiac myofibrils)", "type": "biochemical", "settings": "AC20 = concentration at which total response is increased by twenty percent", "experimental": "Small molecule agents were assessed for their ability to activate the enzymatic activity of bovine cardiac myosin using a biochemical assay that couples the release of ADP (adenosine diphosphate) from cardiac myosin to an enzymatic coupling system consisting of pyruvate kinase and lactate dehydrogenase (PK/LDH) and monitoring the absorbance decrease of NADH (at 340 nm) as a function of time. PK converts ADP to ATP (adenosine triphosphate) by converting PEP (phosphoenolpyruvate) to pyruvate. Pyruvate is then converted to lactate by LDH by converting NADH (nicotinamide adenine dinucleotide) to NAD (oxidized nicotinamide adenine dinucleotide). The source of cardiac myosin was from bovine heart in the form of skinned myofibrils. Prior to testing small molecule agents, the bovine myofibrils were assessed for their calcium responsiveness and the calcium concentration that achieves either a 50% (pCa50 or pCa=˜6) or <5% (pCa=10) activation of the myofibril system was chosen as the final condition for assessing the activation activity of the small molecule agents. All enzymatic activity was measured in a buffered solution containing 12 mM PIPES (piperazine-N,N′-bis(2-ethanesulfonic acid), 2 mM magnesium chloride at pH 6.8 (PM12 buffer). Final assay conditions were 1 mg/mL of bovine cardiac myofibrils, 0.4 mM PK/LDH, 50 uM ATP, 0.1 mg/mL BSA (bovine serum albumin), 10 ppm antifoam, 2 mM BME, 0.5 mM NADH, 1.5 mM PEP at the desired free calcium concentration required to achieve either 50% or <5% activation of the myofibrils.\nA dilution series of compound was created in DMSO such that the final desired concentration of compound would be achieved in a volume of […] with a fixed DMSO concentration of 3.3% (v/v). Typically a 1 μL of the dilution series was added to a 384 well plate to achieve a 10 point dose response. Following the addition of 14 μL of a solution containing bovine cardiac myofibrils, PK/LDH and a solution of calcium (that achieved the desired activation), the enzymatic reaction was started with the addition of 15 μL of a solution containing ATP, PEP and NADH. The reaction progress was followed in a PerkinElmer Envision plate reader at ambient temperature using clear bottom plates. The plate reader was configured to read absorbance at 340 nm in kinetics mode for 15 minutes. Data were recorded as the slope of the absorbance response to time. The slopes of the absorbance response as a function of time were normalized to slopes on the plate containing DMSO. This normalized rate was then plotted as a function of small molecule concentration and the data was fitted to a four-parameter fit using EXCEL XLfit. The concentration at which the total response is increased by twenty or fifty percent is reported as AC20 or AC50.", "values": [{"compound": "Cc1ccc(F)cc1S(=O)(=O)C(F)(F)C1CCN(C(=O)Nc2ccnnc2)CC1", "note": "[Compound 63, 4-(difluoro((5-fluoro-2-methylphenyl)sulfonyl)methyl)-N-(pyridazin-4-yl)piperidine-1-carboxamide]", "Myosin Activation (AC20)": "++ (++ represents myosin activation value AC20 from 2 μM-5 μM)"}, {"compound": "O=C(Nc1ccnnc1)N1CCC(C(F)(F)S(=O)(=O)c2ccc(-n3cncn3)cc2)CC1", "note": "[Compound 64, 4-(((4-(1H-1,2,4-triazol-1-yl)phenyl)sulfonyl)difluoromethyl)-N-(pyridazin-4-yl)piperidine-1-carboxamide]", "Myosin Activation (AC20)": "++ (++ represents myosin activation value AC20 from 2 μM-5 μM)"}, {"compound": "Cc1cc(C(F)(F)F)ccc1S(=O)(=O)C(F)(F)C1CCN(C(=O)Nc2ccnnc2)CC1", "note": "[Compound 65, 4-(difluoro((2-methyl-4-(trifluoromethyl)phenyl)sulfonyl)methyl)-N-(pyridazin-4-yl)piperidine-1-carboxamide]", "Myosin Activation (AC20)": "++ (++ represents myosin activation value AC20 from 2 μM-5 μM)"}, {"compound": "Cn1ncc2c(S(=O)(=O)C(F)(F)C3CCN(C(=O)Nc4ccnnc4)CC3)cccc21", "note": "[Compound 66, 4-(difluoro((1-methyl-1H-indazol-4-yl)sulfonyl)methyl)-N-(pyridazin-4-yl)piperidine-1-carboxamide]", "Myosin Activation (AC20)": "++ (++ represents myosin activation value AC20 from 2 μM-5 μM)"}, {"compound": "O=C(Nc1ccnnc1)N1CCC(C(F)(F)S(=O)(=O)c2ccc(N3CCC3)nc2)CC1", "note": "[Compound 67, 4-(((6-(azetidin-1-yl)pyridin-3-yl)sulfonyl)difluoromethyl)-N-(pyridazin-4-yl)piperidine-1-carboxamide]", "Myosin Activation (AC20)": "++ (++ represents myosin activation value AC20 from 2 μM-5 μM)"}, {"compound": "COc1ccc(F)cc1S(=O)(=O)C(F)(F)C1CCN(C(=O)Nc2ccnnc2)CC1", "note": "[Compound 68, 4-(difluoro((5-fluoro-2-methoxyphenyl)sulfonyl)methyl)-N-(pyridazin-4-yl)piperidine-1-carboxamide]", "Myosin Activation (AC20)": "+ (+ represents myosin activation value AC20 > 5 μM)"}, {"compound": "O=C(Nc1ccnnc1)N1CCC(C(F)(F)S(=O)(=O)c2ccc(C(F)(F)F)c(F)c2)CC1", "note": "[Compound 69, 4-(difluoro((3-fluoro-4-(trifluoromethyl)phenyl)sulfonyl)methyl)-N-(pyridazin-4-yl)piperidine-1-carboxamide]", "Myosin Activation (AC20)": "++ (++ represents myosin activation value AC20 from 2 μM-5 μM)"}, {"compound": "Cc1cnccc1S(=O)(=O)C(F)(F)C1CCN(C(=O)Nc2ccnnc2)CC1", "note": "[Compound 70, 4-(difluoro((3-methylpyridin-4-yl)sulfonyl)methyl)-N-(pyridazin-4-yl)piperidine-1-carboxamide]", "Myosin Activation (AC20)": "++ (++ represents myosin activation value AC20 from 2 μM-5 μM)"}, {"compound": "O=C(Nc1ccnnc1)N1CCC(C(F)(F)S(=O)(=O)c2cccc3c2COC3)CC1", "note": "[Compound 71, 4-(((1,3-dihydroisobenzofuran-4-yl)sulfonyl)difluoromethyl)-N-(pyridazin-4-yl)piperidine-1-carboxamide]", "Myosin Activation (AC20)": "++ (++ represents myosin activation value AC20 from 2 μM-5 μM)"}, {"compound": "COc1ccc(Cl)c(S(=O)(=O)C(F)(F)C2CCN(C(=O)Nc3ccnnc3)CC2)c1", "note": "[Compound 72, 4-(((2-chloro-5-methoxyphenyl)sulfonyl)difluoromethyl)-N-(pyridazin-4-yl)piperidine-1-carboxamide]", "Myosin Activation (AC20)": "+++ (+++ represents myosin activation value AC20 < 2 μM)"}, {"compound": "Cc1cc(OC(F)(F)F)ccc1S(=O)(=O)C(F)(F)C1CCN(C(=O)Nc2ccnnc2)CC1", "note": "[Compound 73, 4-(difluoro((2-methyl-4-(trifluoromethoxy)phenyl)sulfonyl)methyl)-N-(pyridazin-4-yl)piperidine-1-carboxamide]", "Myosin Activation (AC20)": "++ (++ represents myosin activation value AC20 from 2 μM-5 μM)"}, {"compound": "O=C(Nc1ccnnc1)N1CCC(C(F)(F)S(=O)(=O)c2cc(OC(F)(F)F)ccc2Cl)CC1", "note": "[Compound 74, 4-(((2-chloro-5-(trifluoromethoxy)phenyl)sulfonyl)difluoromethyl)-N-(pyridazin-4-yl)piperidine-1-carboxamide]", "Myosin Activation (AC20)": "+++ (+++ represents myosin activation value AC20 < 2 μM)"}, {"compound": "N#Cc1ccc(S(=O)(=O)C(F)(F)C2CCN(C(=O)Nc3ccnnc3)CC2)c(Cl)c1", "note": "[Compound 76, 4-(((2-chloro-4-cyanophenyl)sulfonyl)difluoromethyl)-N-(pyridazin-4-yl)piperidine-1-carboxamide]", "Myosin Activation (AC20)": "++ (++ represents myosin activation value AC20 from 2 μM-5 μM)"}, {"compound": "CCC(F)(C1CCN(C(=O)Nc2ccnnc2)CC1)S(=O)(=O)c1cccc(F)c1", "note": "(centres unmarked) [Compound 77, 4-(1-fluoro-1-((3-fluorophenyl)sulfonyl)propyl)-N-(pyridazin-4-yl)piperidine-1-carboxamide]", "Myosin Activation (AC20)": "++ (++ represents myosin activation value AC20 from 2 μM-5 μM)"}, {"compound": "Cn1cc(S(=O)(=O)C(F)(F)C2CCN(C(=O)Nc3ccc(C#N)nc3)CC2)c(C(F)F)n1", "note": "[Compound 78, N-(6-cyanopyridin-3-yl)-4-(((3-(difluoromethyl)-1-methyl-1H-pyrazol-4-yl)sulfonyl)difluoromethyl)piperidine-1-carboxamide]", "Myosin Activation (AC20)": "+ (+ represents myosin activation value AC20 > 5 μM)"}, {"compound": "Cn1cc(S(=O)(=O)C(F)(F)C2CCN(C(=O)Nc3ccnc(F)c3)CC2)c(C(F)F)n1", "note": "[Compound 79, 4-(((3-(difluoromethyl)-1-methyl-1H-pyrazol-4-yl)sulfonyl)difluoromethyl)-N-(2-fluoropyridin-4-yl)piperidine-1-carboxamide]", "Myosin Activation (AC20)": "+ (+ represents myosin activation value AC20 > 5 μM)"}, {"compound": "Cc1ccc(NC(=O)N2CCC(C(F)(F)S(=O)(=O)c3cn(C)nc3C(F)F)CC2)cn1", "note": "[Compound 80, 4-(((3-(difluoromethyl)-1-methyl-1H-pyrazol-4-yl)sulfonyl)difluoromethyl)-N-(6-methylpyridin-3-yl)piperidine-1-carboxamide]", "Myosin Activation (AC20)": "+ (+ represents myosin activation value AC20 > 5 μM)"}, {"compound": "Cn1cc(S(=O)(=O)C(F)(F)C2CCN(C(=O)Nc3ccc(F)nc3)CC2)c(C(F)F)n1", "note": "[Compound 81, 4-(((3-(difluoromethyl)-1-methyl-1H-pyrazol-4-yl)sulfonyl)difluoromethyl)-N-(6-fluoropyridin-3-yl)piperidine-1-carboxamide]", "Myosin Activation (AC20)": "+ (+ represents myosin activation value AC20 > 5 μM)"}, {"compound": "Cn1cc(S(=O)(=O)C(F)(F)C2CCN(C(=O)Nc3ccon3)CC2)c(C(F)F)n1", "note": "[Compound 82, 4-(((3-(difluoromethyl)-1-methyl-1H-pyrazol-4-yl)sulfonyl)difluoromethyl)-N-(isoxazol-3-yl)piperidine-1-carboxamide]", "Myosin Activation (AC20)": "+ (+ represents myosin activation value AC20 > 5 μM)"}, {"compound": "Cn1cc(S(=O)(=O)C(F)(F)C2CCN(C(=O)Nc3ccnnc3)CC2)c(C(F)F)n1", "note": "[Compound 83, 4-(((3-(difluoromethyl)-1-methyl-1H-pyrazol-4-yl)sulfonyl)difluoromethyl)-N-(pyridazin-4-yl)piperidine-1-carboxamide]", "Myosin Activation (AC20)": "++ (++ represents myosin activation value AC20 from 2 μM-5 μM)"}, {"compound": "Cn1cnc(S(=O)(=O)C(F)(F)C2CCN(C(=O)Nc3ccnnc3)CC2)c1", "note": "[Compound 84, 4-(difluoro((1-methyl-1H-imidazol-4-yl)sulfonyl)methyl)-N-(pyridazin-4-yl)piperidine-1-carboxamide]", "Myosin Activation (AC20)": "+ (+ represents myosin activation value AC20 > 5 μM)"}, {"compound": "CCn1nccc1S(=O)(=O)C(F)(F)C1CCN(C(=O)Nc2ccnnc2)CC1", "note": "[Compound 85, 4-(((1-ethyl-1H-pyrazol-5-yl)sulfonyl)difluoromethyl)-N-(pyridazin-4-yl)piperidine-1-carboxamide]", "Myosin Activation (AC20)": "+ (+ represents myosin activation value AC20 > 5 μM)"}, {"compound": "O=C(Nc1ccnnc1)N1CCC(C(F)(F)S(=O)(=O)c2ccccc2-n2cncn2)CC1", "note": "[Compound 86, 4-(((2-(1H-1,2,4-triazol-1-yl)phenyl)sulfonyl)difluoromethyl)-N-(pyridazin-4-yl)piperidine-1-carboxamide]", "Myosin Activation (AC20)": "++ (++ represents myosin activation value AC20 from 2 μM-5 μM)"}]}]}
